Like-named read-outs stand apart in the source and are kept apart here.
Legend:
[1] = white light
[2] = tested on: Chinese hamster V79-379 cells; test: Clonogenic cell survival / photocytotoxicity in V79 cells (Table 1, FIG. 1, FIG. 2); format: cell-based
Protocol: FIG. 1 is a graph illustrating the photodynamic efficacy of the various compositions of the present invention in comparison to AlPcCl. The phthalocyanine composition compounds of the present invention were tested for their photodynamic efficiency against Chinese hamster fibroblast V79 cells by colony formation. Monolayer cultures were treated with the indicated phthalocyanine composition for 18 hours, irradiated with various fluences of red light, and immediately trypsinized and replated at appropriate aliquots in triplicate. Colonies of at least 50 cells were counted after 7-10 days. The plating efficiency of the untreated cells was approximately 90%.
In this regard, in FIG. 2 the data of FIG. 1 were replotted as a function of the product of the amount of cell-associated phthalocyanine and the light fluence.
(§1) Chinese hamster V79-379 lung fibroblasts were grown in monolayer culture in McCoy's 5A medium (Gibco Laboratories, Grand Island, N.Y.) augmented with 10% calf serum and buffered with 20 mM HEPES (pH 7.4).
(§2) The cells were treated with 1 μM AlPcCl (from Eastman Kodak, Rochester, N.Y.) or with phthalocyanine compositions I-VI (0.5-1.0 μM final concentration in the medium) for 18 hours by adding the appropriate volume of a 1.0 mM stock solution in dimethylformamide (DMF) to the culture medium. The growth medium was replaced with 4 ml Hank's balanced salt solution (HBSS), and the cells were irradiated. The light source was a 500 W tungsten-halogen lamp located approximately 29 inches below the surface of a glass exposure tray. The visible light administered to the cells was filtered to allow passage of only that portion of the visible spectrum above 600 nm (Lee Primary red filter No. 106, Vincent Lighting, Cleveland, Ohio). The fluence rate was approximately 0.074 kJ/m^2 /s at the level of the cell monolayer.
Cells were irradiated at a density of approximately 2×10^6 per 25 cm^2 flask. Immediately after irradiation, the cell monolayer was treated with trypsin, and appropriate aliquots were plated in triplicate to give 100 to 200 colonies in each 10-cm Petri dish. Cell survival was determined by the ability of the cells to form colonies containing at least 50 cells. The response of cells treated with 1 μM AlPcCl and light was compared in each experiment.
Photocytotoxicity of the phthalocyanines compounds I to VI was also assessed by clonogenic assay (Table 1, FIG. 1). In all experiments, 1 μM AlPcCl was included for comparison purposes. From the survival curves (FIG. 1), the fluence reducing the cell survival to 10% (F10) was obtained. The ratio of the F10 for AlPcCl and the F10 for the test compound is recorded in Table 1.
In order to take differences in cellular uptake into consideration in the assessment of the relative efficiency of these phthalocyanines as photosensitizers of V79 cells, the survival data were replotted against the product of intracellular phthalocyanine concentration and light fluence (FIG. 2). From these curves, the product of intracellular concentration and light fluence reducing survival to 10% (CF10) was obtained, and comparisons of the values for AlPcCl and the test compounds are recorded in Table 1.

[3] = tested on: Chinese hamster V79-379 cells; test: Uptake of phthalocyanines by V79 cells relative to AlPcCl (Table 1); format: cell-based
Protocol: as §1
Total uptake was determined by scraping the phthalocyanine-treated monolayer, collecting the cells on a glass-fiber filter, and extracting the phthalocyanine in ethanol, as previously described by Ramakrishnan, et al., 1989. (Ramakrishnan, N., M. E. Clay, M. F. Horng, A. R. Antunez, & H. H. Evans, "DNA Lesions and DNA Degradation in Mouse Lymphoma L5178Y Cells After Photodynamic Treatment Sensitized by Chloroaluminum Phthalocyanine",Photochem. Photobiol, in press, 1989). The amount of drug was determined by absorption at 674 nm and expressed relative to the number of cells, as measured in a Coulter cell counter on an aliquot of the cell population. Controls included cells not treated with drug, medium alone, and drug-containing medium without cells. The results of the total uptake of the various compositions of the present invention in comparison to AlPcCl are set forth below in Table 1.
as §2
All of the compounds have been examined for the extent of cellular uptake after exposure of V79 cells to 1 μM or less in complete medium, and the data of Table 1 are presented relative to the uptake from 1 μM AlPcCl, which was 0.723±0.172 nmole/10^7 cells (mean ±S. D., 25 determinations). […] In particular, when the concentration of Compound IV was 1 μM in the medium, the uptake into the cells was sufficiently high that some of the uptake and phototoxicity studies were repeated at 0.5 μM.

[4] = tested on: Chinese hamster V79-379 cells; test: Growth delay of V79 cultures after red light (Table 1); format: cell-based; conditions: for Growth Delay, efficiency relative to 1 μM AlPcCl: 18 h, 12 kJ/m^2 red light; for inhibition of V79 culture growth (in words): red light 12 kJ/m^2, three day period
Protocol: as §1, §2
At the time of light exposure, there were approximately 1.5×10^5 cells per 25 cm^2 flask. Following irradiation, the HBSS was replaced by 10 ml of fresh complete growth medium, and the cultures were returned to the 37° C. incubator. At various times before and after irradiation, duplicate cultures were trypsinized and counted. Controls included untreated cells and cells treated with light alone or drug alone. In addition, in each experiment, the drug to be tested was compared to a standard treatment, i.e. 1 μM AlPcCl for 18 hours followed by 12 kJ/m^2 light.
The inhibition of V79 culture growth was measured during a three day period following red light irradiation (12 kJ/m^2) of phthalocyanine-pretreated cells. With each of the active compounds, as well as with AlPcCl, there was an initial decrease in cell density, as dead cells became detached from the monolayer. Thereafter, the cell number per flask increased, as living cells grew and divided. The time for the cell density to recover to the level at the time of light exposure was considered the growth delay. […] The ratio of the growth delay for the test photosensitizer and the growth delay for AlPcCl measured in the same experiment is recorded in Table 1.

L5178Y cells = test: Induction of apoptosis (DNA fragmentation) in L5178Y-R cells (Table 6); format: cell-based, mouse; conditions: for induction of apoptosis: 1 μM at a fluence of 30 kJ/m^2; for Minimum Demonstrated Condition to induce apoptosis: C × F / Minimum Demonstrated Condition to induce apoptosis: Fluence: 0.5 μM
Procedure, shortened: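 Exponentially growing mouse lymphoma L5178Y-R cells loaded 18 hours with phthalocyanine at various concentrations, then irradiated with >600 nm red light (up to 30 kJ/m^2, ~74 W/m^2). DNA isolated 2 hours post-PDT, run on 1.5% agarose; value is minimum PDT dose (concentration × fluence) giving visible DNA ladder.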

viruses = conditions: New York Blood Center (Ben-Hur); cited from earlier work
V79 cells [5] = test: Uptake of additional phthalocyanines into V79 cells (Table 2); conditions: for Uptake into V79 cells: 18 hours
Protocol: (§3) V79 cells Chinese hamster lung fibroblasts were cultured using the cell culture methods described above. […] When the filters were dry, the phthalocyanines were extracted into ethanol and the absorption determined at the peak wavelength, usually 668 nm.

V79 cells [6] = test: Clonogenicity, killing of V79 cells using photodynamic therapy (Table 3); format: cell-based, Chinese hamster
Procedure, shortened: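 V79 Chinese hamster lung fibroblasts were loaded with 0.5 or 1.0 μM phthalocyanine, then about 18 h later irradiated with increasing doses of 675 nm broad-band red light (tungsten-halogen lamp, 600 nm high-pass filter). Recorded value is the light dose killing 90% of cells, or, failing that, the maximum kill (% survival) and its dose.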

V79 cells [7] = tested on: V79 cells
Protocol: as §3

For `CCN(CCC[Si](C)(C)O[Si]1(C)n2c3c4ccccc4c2N=C2N=C(N=c4c5ccccc5c(n41)=NC1=NC(=N3)c3ccccc31)c1ccccc12)CCN(C)C` (centres unmarked) [CH3 SiPcOSi(CH3)2 (CH2)3 N(CH2 CH3)(CH2)2 N(CH3)2], the photolysis of solutions [1] was “rapidly photolyzed by white light”.

For `CN1CCN(CCC[Si](C)(C)O[Si]2(C)n3c4c5ccccc5c3N=C3N=C(N=c5c6ccccc6c(n52)=NC2=NC(=N4)c4ccccc42)c2ccccc23)CC1` (centres unmarked) [CH3 SiPcOSi(CH3)2 (CH2)3 NC4 H8 NCH3], the photolysis of solutions [1] was “rapidly photolyzed by white light”.

In the case of `CN(C)CCCN(CCCN(C)C)CCC[Si](C)(C)O[Si]1(C)n2c3c4ccccc4c2N=C2N=C(N=c4c5ccccc5c(n41)=NC1=NC(=N3)c3ccccc31)c1ccccc12` (centres unmarked) [CH3 SiPcOSi(CH3)2 (CH2)3 N[(CH2)3 N(CH3)2]2], the photolysis of solutions [1] is reported as “rapidly photolyzed by white light”.

For `CN(C)CCC[Si](C)(C)[O][Al]1[n]2c3c4ccccc4c2N=C2N=C(N=c4c5ccccc5c([n]41)=NC1=NC(=N3)c3ccccc31)c1ccccc12` [Compound I, AlPcOSi(CH3)2 (CH2)3 N(CH3)2], the “CF10 (AlPcCl)/CF10 (Pc)” value ([2]; 1.0 μM, 18 h, CF10 = intracellular concentration x fluence reducing survival to 10%) was 0.51, the “F10 (AlPcCl)/F10 (Pc)” value ([2]; 1.0 μM, 18 h, F10 = fluence reducing survival to 10%) was 0.94 and the “photosensitizing efficiency / photocytotoxicity (in words)” value ([2]; V79 cells, red light) was “nearly as efficient photosensitizers as AlPcCl”. For the same molecule, the solubility in solvents (Solubility) was “soluble in CH2 Cl2 and toluene”, the “Uptake, efficiency relative to 1 μM AlPcCl” value ([3]; 1.0 μM, 18 h) was 2.3 and the “cellular uptake (in words)” value ([3]; V79 cells, 1 μM or less, compared with AlPcCl) was “taken up into the cells more efficiently than was AlPcCl”. The “Growth Delay, efficiency relative to 1 μM AlPcCl” value [4] was 2.1 and the “inhibition of V79 culture growth (in words)” value (from here on “inhibition”) [4] was “substantial inhibition”.

With `CN(C)CCC[Si](C)(C)O[Si]1(C)n2c3c4ccccc4c2N=C2N=C(N=c4c5ccccc5c(n41)=NC1=NC(=N3)c3ccccc31)c1ccccc12` (centres unmarked) [Compound III, CH3 SiPcOSi(CH3)2 (CH2)3 N(CH3)2] the “photosensitizing efficiency / photocytotoxicity (in words)” value [2] was “low activity”, the photolysis of solutions [1] was “rapidly photolyzed by white light” and the “Growth Delay, efficiency relative to 1 μM AlPcCl” value [4] was 0.05. For the same molecule, the “inhibition” value [4] was “less inhibition of culture growth”.

For `C[N+](C)(C)CCC[Si](C)(C)O[Si]1(O[Si](C)(C)CCC[N+](C)(C)C)n2c3c4ccccc4c2N=C2N=C(N=c4c5ccccc5c(n41)=NC1=NC(=N3)c3ccccc31)c1ccccc12.[I-].[I-]` [Compound VI, SiPc[OSi(CH3)2 (CH2)3 N(CH3)3)^+ I^- ]2], the “photosensitizing efficiency / photocytotoxicity (in words)” value [2] is listed as “low activity”, the induction of apoptosis (L5178Y cells) is listed as “did not induce apoptosis” and the “purging viruses from blood and/or blood components” value (“purging viruses” for short) (viruses) is listed as “effective at purging viruses from blood and/or blood components”. For the same molecule, the “Growth Delay, efficiency relative to 1 μM AlPcCl” value [4] was 0.05 and the “inhibition” value [4] was “less inhibition of culture growth”.

For `CCCCCCCCCCCC[N+](C)(C)CCC[Si](C)(C)O[Si]1(O[Si](C)(C)CCC[N+](C)(C)CCCCCCCCCCCC)n2c3c4ccccc4c2N=C2N=C(N=c4c5ccccc5c(n41)=NC1=NC(=N3)c3ccccc31)c1ccccc12` [Compound XIV, SiPc[OSi(CH3)2 (CH2)3 N^+ (CH3)2 (CH2)11 CH3]2 2I^-], the “Uptake into V79 cells” value (V79 cells [5]; 1 μM) was 0.03 ± 0.01 n Moles/10^6 cells, the “Uptake into V79 cells” value (V79 cells [5]; 4 μM) was 0.05 ± 0.01 n Moles/10^6 cells and the “Uptake into V79 cells, composite value” (V79 cells [5]; average of all data) was under 0.05 n Moles/10^6 cells/μM. For the same molecule, the “Uptake (from Table 2)” value (V79 cells [5]; repeated in Table 3) was under 0.05 n Moles/10^6 cells/μM, the induction of apoptosis (L5178Y cells) was “did not induce apoptosis” and the “purging viruses” value (viruses) was “effective at purging viruses from blood and/or blood components”. It also gave a Cell survival at highest light dose at 1 µM (V79 cells [6]; Cricetulus griseus, V79, read-out: Maximum Effect (% survival)) of 93%.

For `CCCCCCCCCCCC[N+](C)(C)CCC[Si](C)(C)[O][Al]1[n]2c3c4ccccc4c2N=C2N=C(N=c4c5ccccc5c([n]41)=NC1=NC(=N3)c3ccccc31)c1ccccc12.[I-]` [Compound XXI, AlPcOSi(CH3)2 (CH2)3 N^+ (CH3)2)(CH2)11 CH3 I^-], the “Uptake into V79 cells, composite value” (V79 cells [7]) was 1.3 n Moles/10^6 cells/μM, the “uptake by V79 cells (in words)” value (V79 cells [7]) was “taken up particulary well” and the “Minimum Demonstrated Condition to induce apoptosis: C × F” value (from here on “Minimum Demonstrated Condition … C × F”) (L5178Y cells) was 7.5 μm × kJ/m^2. The “Minimum Demonstrated Condition to induce apoptosis: Fluence” value (“Minimum Demonstrated Condition … Fluence” for short) (L5178Y cells) was 15.0 kJ/m^2, the “purging viruses” value (viruses) was “effective at purging viruses from blood and/or blood components” and the “LD 90” value (V79 cells [6]; 0.5 μM, 18 h, light dose killing 90% of cells) was 15 kJ/m^2.

For `CN1CCN(CCC[Si](C)(C)O[Si]2(O[Si](C)(C)CCCN3CCN(C)CC3)n3c4c5ccccc5c3N=C3N=C(N=c5c6ccccc6c(n52)=NC2=NC(=N4)c4ccccc42)c2ccccc23)CC1` [Compound XXX, SiPc[OSi(CH3)2 (CH2)3 NC4 H8 NCH3]2], the solubility (Solubility) was under 500 µM, the “solubility in DMF” value (Solubility) was “not soluble in DMF” and the “Minimum Demonstrated Condition … C × F” value (L5178Y cells; DMF-Tween 80) was 7.5 μm × kJ/m^2. For the same molecule, the “Minimum Demonstrated Condition … Fluence” value (L5178Y cells; DMF-Tween 80) was 15.0 kJ/m^2 and the Cell survival at highest light dose (V79 cells [6]; Cricetulus griseus, V79, concentration not given, at 10 kJ/m^2, read-out: Maximum Effect (% survival)) was 30%.

In the case of `C[Si](C)(CCCN1CCNCC1)O[Si]1(O[Si](C)(C)CCCN2CCNCC2)n2c3c4ccccc4c2N=C2N=C(N=c4c5ccccc5c(n41)=NC1=NC(=N3)c3ccccc31)c1ccccc12` [Compound XXXII, SiPc[OSi(CH3)2 (CH2)3 NC4 H8 NH]2], the “solubility in DMF” value (Solubility) is reported as “not soluble in DMF”, the “Minimum Demonstrated Condition … C × F” value (L5178Y cells; DMF-Tween 80) is reported as 2.5 μm × kJ/m^2 and the “Minimum Demonstrated Condition … Fluence” value (L5178Y cells; DMF-Tween 80) is reported as 5 kJ/m^2.

From patent US5484778A, “Phthalocyanine photosensitizers for photodynamic therapy and methods for their use” (priority 1993, dated 1996)
